Source: patent EP0973746B1, “SUBSTITUTED 3-CYANO QUINOLINES” (Wyeth Holdings Corporation, priority 1997, dated 1998)
Converted amounts (≈) assume the structure as drawn.

What was measured:
A431 [1] = experiment: Inhibition of cell growth by incorporation of [3H]-thymidine, A431; assay type: cell-based, human; settings: Homo sapiens, A-431; [3H]-thymidine incorporation; A431; read-out: IC50 A431
HTB161 = experiment: Inhibition of cancer cell growth as measured by cell number, HTB161; assay type: cell-based; settings: Homo sapiens; cell number, Sulforhodamine B, 48 hours exposure; Table 4; read-out: IC50 HTB161
A27805 = experiment: Inhibition of cancer cell growth as measured by cell number, A27805; assay type: cell-based; settings: Homo sapiens; cell number, Sulforhodamine B, 48 hours exposure; Table 4; read-out: IC50 A27805
A2780DDP = experiment: Inhibition of cancer cell growth as measured by cell number, A2780DDP; assay type: cell-based; settings: Homo sapiens; cell number, Sulforhodamine B, 48 hours exposure; Table 4; read-out: IC50 A2780DDP
MIP = experiment: Inhibition of cancer cell growth as measured by cell number, MIP; assay type: cell-based; settings: Homo sapiens; cell number, Sulforhodamine B, 48 hours exposure; Table 4; read-out: IC50 MIP
SW620 = experiment: Inhibition of cancer cell growth as measured by cell number, SW620; assay type: cell-based, human; settings: Homo sapiens, SW-620, 48 h, cell number, Sulforhodamine B, 48 hours exposure; Table 4; read-out: IC50 SW620;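 note: SW620 was included as a cell line with little or no EGFR or HER2/neu expression, in contrast to receptor-overexpressing lines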
Excerpt: (§1) The cell lines were chosen since they overexpressed epidermal growth factor receptor (EGFR) (i.e. A431) or HER2/neu (SKBR3), or had little to no expression of the these receptors (SW620, LOX, MCF7).

COLO205 = experiment: Inhibition of cancer cell growth as measured by cell number, COLO205; assay type: cell-based; settings: Homo sapiens, COLO 205; cell number, Sulforhodamine B, 48 hours exposure; Table 4; read-out: IC50 COLO205
CX1 = experiment: Inhibition of cancer cell growth as measured by cell number, CX1; assay type: cell-based; settings: Homo sapiens, CX-1; cell number, Sulforhodamine B, 48 hours exposure; Table 4; read-out: IC50 CX1
CACO2 = experiment: Inhibition of cancer cell growth as measured by cell number, CACO2; assay type: cell-based; settings: Homo sapiens, Caco-2; cell number, Sulforhodamine B, 48 hours exposure; Table 5; read-out: IC50 CACO2
HCT15 = experiment: Inhibition of cancer cell growth as measured by cell number, HCT15; assay type: cell-based; settings: Homo sapiens, HCT-15; cell number, Sulforhodamine B, 48 hours exposure; Table 5; read-out: IC50 HCT15
LS174T = experiment: Inhibition of cancer cell growth as measured by cell number, LS174T; assay type: cell-based; settings: Homo sapiens, cell number, Sulforhodamine B, 48 hours exposure, Table 5, read-out: IC50 LS174T
SW948 = experiment: Inhibition of cancer cell growth as measured by cell number, SW948; assay type: cell-based; settings: Homo sapiens, SW948; cell number, Sulforhodamine B, 48 hours exposure; Table 5; read-out: IC50 SW948
CCL228 = experiment: Inhibition of cancer cell growth as measured by cell number, CCL228; assay type: cell-based; settings: Homo sapiens; cell number, Sulforhodamine B, 48 hours exposure; Table 5; read-out: IC50 CCL228
MCF7 = experiment: Inhibition of cancer cell growth as measured by cell number, MCF7; assay type: cell-based, human; settings: Homo sapiens, MCF7, 48 h, cell number, Sulforhodamine B, 48 hours exposure; Table 5; read-out: IC50 MCF7;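 note: MCF7 was included as a line with little or no EGFR or HER2/neu expression, in contrast to the receptor-overexpressing lines of the panel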
Excerpt: as §1

B7474 = experiment: Inhibition of cancer cell growth as measured by cell number, B7474; assay type: cell-based; settings: Homo sapiens; cell number, Sulforhodamine B, 48 hours exposure; Table 6; read-out: IC50 B7474
T47D = experiment: Inhibition of cancer cell growth as measured by cell number, T47D; assay type: cell-based; settings: Homo sapiens, cell number, Sulforhodamine B, 48 hours exposure, Table 6, read-out: IC50 T47D
LX1 = experiment: Inhibition of cancer cell growth as measured by cell number, LX1; assay type: cell-based; settings: Homo sapiens, LX-1; cell number, Sulforhodamine B, 48 hours exposure; Table 6; read-out: IC50 LX1
A549 = experiment: Inhibition of cancer cell growth as measured by cell number, A549; assay type: cell-based; settings: Homo sapiens, A549; cell number, Sulforhodamine B, 48 hours exposure; Table 6; read-out: IC50 A549
LOX = experiment: Inhibition of cancer cell growth as measured by cell number, LOX; assay type: cell-based, human; settings: Homo sapiens, LOX, 48 h, cell number, Sulforhodamine B, 48 hours exposure; Table 6; read-out: IC50 LOX;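 note: LOX cells served as a line with low or absent EGFR and HER2/neu expression, in contrast to receptor-overexpressing lines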
Excerpt: as §1

A431 [2] = experiment: Inhibition of cancer cell growth as measured by cell number, A431; assay type: cell-based, human; settings: Homo sapiens, A-431, 48 h, cell number, Sulforhodamine B, 48 hours exposure; Table 6; read-out: IC50 A431;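 note: human A431 line, picked because it overexpresses epidermal growth factor receptor (EGFR)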
Excerpt: as §1

NEC = experiment: Inhibition of cancer cell growth as measured by cell number, NEC; assay type: cell-based; settings: Homo sapiens; cell number, Sulforhodamine B, 48 hours exposure; Table 6; read-out: IC50 NEC
DU145 = experiment: Inhibition of cancer cell growth as measured by cell number, DU145; assay type: cell-based; settings: Homo sapiens, DU-145; cell number, Sulforhodamine B, 48 hours exposure; Table 7; read-out: IC50 DU145
PC3 = experiment: Inhibition of cancer cell growth as measured by cell number, PC3; assay type: cell-based; settings: Homo sapiens, PC-3; cell number, Sulforhodamine B, 48 hours exposure; Table 7; read-out: IC50 PC3
LNCAP = experiment: Inhibition of cancer cell growth as measured by cell number, LNCAP; assay type: cell-based; settings: Homo sapiens, cell number, Sulforhodamine B, 48 hours exposure, Table 7, read-out: IC50 LNCAP
HL60 = experiment: Inhibition of cancer cell growth as measured by cell number, HL60; assay type: cell-based; settings: Homo sapiens, HL-60; cell number, Sulforhodamine B, 48 hours exposure; Table 7; read-out: IC50 HL60
CCRF-CFM = experiment: Inhibition of cancer cell growth as measured by cell number, CCRF-CFM; assay type: cell-based; settings: Homo sapiens; cell number, Sulforhodamine B, 48 hours exposure; Table 7; read-out: IC50 CCRF-CFM
SKBR3 = experiment: Inhibition of cancer cell growth as measured by cell number, SKBR3; assay type: cell-based, human; settings: Homo sapiens, SK-BR-3; cell number, Sulforhodamine B, 48 hours exposure; Table 7; read-out: IC50 SKBR3;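 note: SK-BR-3 cells were selected as a line overexpressing HER2/neu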
Excerpt: as §1

[3] = biological target: recombinant human MEK 1 (MAPKK) and recombinant human ERK2 (MAPK); experiment: Mitogen Activated Protein Kinase (MAPK) assay, two component coupled MEK 1 / ERK2; assay type: biochemical; settings: separate entries for the same compound = evaluated more than one time;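 note: MEK 1-activated ERK2 phosphorylates MBP or Myc peptide with 33P-ATP, filter capture and scintillation counting, inhibitor preincubated with ERK2 30 min at 0 °C, inhibition relative to uninhibited control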
Description: To evaluate inhibitors of the MAP (mitogen activated protein) kinase a two component coupled standard pharmacological test procedure, which measures phosphorylation of a serine/threonine residue in an appropriate sequence in the substrate in the presence and absence of a putative inhibitor, was used. Recombinant human MEK 1 (MAPKK) was first used to activate recombinant human ERK2 (MAPK) and the activated MAPK (ERK) was incubated with substrate (MBP peptide or MYC peptide) in the presence of ATP, Mg^+2 and radiolabeled ^33P ATP. The phosphorylated peptide was captured on a P 81 phosphocellulose filter (paper filter or embedded in microtiter plate) washed and counted by scintillation methods.
The peptide substrates used in the assay are MBP, peptide substrate ([sequence]), or synthetic Myc substrate, ([sequence]•5 TFA. The recombinant enzymes used were prepared as GST fusion proteins of human ERK 2 and human MEK 1. Inhibitor samples were prepared as 10X stocks in 10% DMSO and an appropriate aliquot was used to deliver either 10 ug/ml for a single point screening dose or 100, 10, 1, and 0.1 uM final concentration for a dose response curve. Final DMSO concentrations were less than or equal to 1%.
The reaction was run as follows in 50 mM Tris kinase buffer, pH 7.4 in a reaction volume of 50 ul. The appropriate volume of kinase buffer and inhibitor sample was added to the tube. Appropriate dilution of enzyme was delivered to give 2-5 ug recombinant MAPK (Erk ) per tube. The inhibitor was incubated with MAPK (Erk) for 30 min at 0 deg. […] Recombinant Mek (MAPKK) ( 0.5-2.5 ug) or fully activated Mek (0.05-0.1 units) was added to activate the Erk and incubated for 30 min at 30° C. […] Samples were incubated at 30°C for 30 minutes and the reaction was stopped by adding 25 µl of ice cold 10 %TCA .After samples were chilled on ice for 30 min, 20 µl of sample was transferred onto P 81 phosphocellulose filter paper or appropriate MTP with embedded P 81 filter. Filter papers or MTP were washed 2 times with a large volume of 1% acetic acid, then 2 times with water. The filters or MTP were briefly air dried before addition of scintillant and samples were counted in the appropriate scintillation counter set up for reading ^33P isotope.
The raw data was captured as cpm. Sample replicates were averaged and corrected for background count. Mean cpm data was tabulated by group and % inhibition by a test compound was calculated as (corrected cpm control- corrected. cpm sample/control) X 100 = % inhibition.

Q: How did the IC50 (A431 [1]) turn out when `COc1cc2ncc(C#N)c(NC3CCCCC3)c2cc1OC` [Example 38, 4-(Cyclohexyamino)-6,7-dimethoxy-3-quinolinecarbonitrile] was run?
A: 35 µM

Q: And the IC50 (HTB161)?
A: 3.19 µg/mL (≈ 10.3 µM)

Q: What about the IC50 (A27805) of the same compound?
A: 4.58 µg/mL (≈ 14.7 µM)

Q: And the IC50 (A2780DDP)?
A: 6.56 µg/mL (≈ 21.1 µM)

Q: What about the IC50 (MIP) of the same compound?
A: 7.75 µg/mL (≈ 24.9 µM)

Q: And the IC50 (SW620)?
A: 31.7 µg/mL (≈ 102 µM)

Q: What about the IC50 (COLO205) of the same compound?
A: 6.43 µg/mL (≈ 20.6 µM)

Q: What about the IC50 (CX1) of the same compound?
A: 5.62 µg/mL (≈ 18.1 µM)

Q: What about the IC50 (CACO2) of the same compound?
A: 5.62 µg/mL (≈ 18 µM)

Q: What about the IC50 (HCT15) of the same compound?
A: 5.16 µg/mL (≈ 16.6 µM)

Q: And the IC50 (LS174T)?
A: 5.37 µg/mL (≈ 17.2 µM)

Q: What about the IC50 (SW948) of the same compound?
A: 10.4 µg/mL (≈ 33.5 µM)

Q: And the IC50 (CCL228)?
A: 8.49 µg/mL (≈ 27.3 µM)

Q: What about the IC50 (MCF7) of the same compound?
A: 6 µg/mL (≈ 19.3 µM)

Q: What about the IC50 (B7474) of the same compound?
A: 17 µg/mL (≈ 54.5 µM)

Q: And the IC50 (T47D)?
A: 5.98 µg/mL (≈ 19.2 µM)

Q: What about the IC50 (LX1) of the same compound?
A: 7.52 µg/mL (≈ 24.2 µM)

Q: What about the IC50 (A549) of the same compound?
A: 7.33 µg/mL (≈ 23.5 µM)

Q: And the IC50 (LOX)?
A: 8.12 µg/mL (≈ 26.1 µM)

Q: What about the IC50 (A431 [2]) of the same compound?
A: 4.73 µg/mL (≈ 15.2 µM)

Q: And the IC50 (NEC)?
A: 6.53 µg/mL (≈ 21 µM)

Q: And the IC50 (DU145)?
A: 5.15 µg/mL (≈ 16.5 µM)

Q: What about the IC50 (PC3) of the same compound?
A: 9.33 µg/mL (≈ 30 µM)

Q: And the IC50 (LNCAP)?
A: 4.58 µg/mL (≈ 14.7 µM)

Q: What about the IC50 (HL60) of the same compound?
A: 4.27 µg/mL (≈ 13.7 µM)

Q: What about the IC50 (CCRF-CFM) of the same compound?
A: 4.39 µg/mL (≈ 14.1 µM)

Q: What about the IC50 (SKBR3) of the same compound?
A: 7.14 µg/mL (≈ 22.9 µM)

Q: And the IC50 [3]?
A: 45 µM
